Test results taken from US20100285964A1, “SALTS OF 2-IODO-N-[(4-METHOXY-6-METHYL-1,3, 5-TRIAZINE-2-YL) CARBAMOYL] BENZENESULFONAMIDE, METHOD FOR THE PRODUCTION THEREOF AND USE THEREOF AS HERBICIDES AND PLANT GROWTH REGULATORS” (BayerCropScience AG, priority 2007, published 2010).

Columns and labels:
Format in all cases: in vivo
[1] = tested on: Solanum nigrum; assay: Post-emergence herbicidal action, field trial (Table A-1); settings: 20 g of ai/ha (acid equivalent for salts), 3-5-leaf stage, 25 days after application, 0%=no control, 100%=complete control
Source text: (§1) In a direct comparison, under field trial conditions (time of application 3-5-leaf stage of the weeds examined), the activities of the weed control of the free acid “2-iodo-N-[(4-methoxy-6-methyl-1,3,5-triazin-2-yl)carbamoyl]benzenesulfonamide” known from DE 27 15 786 were compared to individual salts according to the invention of 2-iodo-N-[(4-methoxy-6-methyl-1,3,5-triazin-2-yl)carbamoyl]benzenesulfonamide (compound I-3 (potassium salt of 2-iodo-N-[(4-methoxy-6-methyl-1,3,5-triazin-2-yl)carbamoyl]benzenesulfonamide) and 1-4 (magnesium salt of 2-iodo-N-[(4-methoxy-6-methyl-1,3,5-triazin-2-yl)carbamoyl]benzenesulfonamide)), evaluation being carried out 25 days after application. With respect to the activity, both a representative of a monocotyledonous weed (Panicum minor) and a representative of a dicotyledonous weed (Solanum nigrum) were scored according to the scheme below:
(§2) 0%=no control 100%=complete control

[2] = tested on: Panicum minor; assay: as above; settings: 20 g of ai/ha (acid equivalent for salts), 3-5-leaf stage, 25 days after application, 0%=no control, 100%=complete control
Source text: as §1, §2

[3] = tested on: Amaranthus retroflexus, Lolium multiflorum, Abuthilon theophrasti, Matricaria inodora, Ipomoea purpurea, Panicum minor, Stellaria media, Solanum nigrum …; assay: Post-emergence herbicidal action, greenhouse; settings: post-emergence method, application rate of 0.08 kg or less of active substance per hectare, scored after about 10 to 28 days
Protocol: Seeds or rhizome pieces of monocotyledonous and dicotyledonous weeds were placed in sandy loam in plastic pots, covered with soil and cultivated in a greenhouse under good growth conditions. Three weeks after sowing, the test plants were treated at the three-leaf stage. The compounds according to the invention, formulated as wettable powders or as emulsion concentrates, were sprayed onto the green parts of the plants at various dosages using a water application rate of from 100 to 800 l/ha (converted).

[4] = tested on: Matricaria inodora, Papaver rhoeas, Stellaria media and Viola tricolor; assay: Pre-emergence herbicidal action, greenhouse; settings: pre-emergence method, application rate of 0.08 kg or less of active substance per hectare, scored after 3 to 4 weeks
Source text: Seeds or rhizome pieces of mono- and dicotyledonous weeds were placed in sandy loam in cardboard pots and covered with soil. The compounds according to the invention, formulated in the form of wettable powders or emulsion concentrates, were then applied to the surface of the covering soil in the form of aqueous suspensions or emulsions at an application rate of 100 to 800 l of water/ha (converted), at various dosages.
After the treatment, the pots were placed in a greenhouse and kept under good growth conditions for the weeds. The visual scoring of the damage to the plants or the emergence damage was carried out after the emergence of the test plants after a test period of 3 to 4 weeks, by comparison with untreated controls. As shown by the results, the compounds according to the invention have good herbicidal pre-emergence activity against a broad spectrum of weed grasses and broad-leaved weeds.

[5] = tested on: broad bean (Vicia faba); assay: Replanting behavior, crop sown in treated soil; settings: scored after four weeks
Protocol: (§3) In further tests, various dosages of the test substances were worked into the soil. Subsequently, various crop plants were sown in plastic pots filled with the treated soil and cultivated in a greenhouse using a day/night rhythm of 22° C./14° C. After four weeks, the plants were scored according to the scheme below.
(§4) 0%=no damage 100%=complete damage

[6] = tested on: sugar beet; assay: Replanting behavior, crop sown in treated soil; settings: scored after four weeks
Protocol: as §3, §4

[7] = tested on: oilseed rape (Brassica napus); assay: Replanting behavior, crop sown in treated soil; settings: scored after four weeks
Protocol: as §3, §4

[8] = tested on: Chenopodium album; assay: Post-emergence herbicidal action, outdoor trial (Table A-2); settings: 2-4-leaf stage, 28 days after application
Source text: (§5) In a further direct comparison, under outdoor trial conditions (time of application 2-4-leaf stage of the weeds examined), the activities of the weed control of the free acid “2-iodo-N-[(4-methoxy-6-methyl-1,3,5-triazin-2-yl)carbamoyl]benzene-sulfonamide” known from DE 27 15 786 were compared to the inventive Na^+ salt of 2-iodo-N-[(4-methoxy-6-methyl-1,3,5-triazin-2-yl)carbamoyl]benzenesulfonamide (compounds I-2 according to the invention) at various application rates, evaluation being carried out 28 days after application. With respect to the activity, the weeds Chenopodium album, Fagopyran repens and Pennisetum glauca were scored according to the scheme below:
as §2

[9] = tested on: Pennisetum glauca; assay: as above; settings: 30 g of ai/ha (acid equivalent for salt), 2-4-leaf stage, 28 days after application
Source text: as §5, §2

[10] = tested on: Fagopyran repens; assay: as above; settings: 2-4-leaf stage, 28 days after application
Source text: as §5, §2

[11] = 0.1 g of ai/ha worked into the soil
[12] = 0.5 g of ai/ha worked into the soil
[13] = 1.9 g of ai/ha worked into the soil
[14] = 7.5 g of ai/ha worked into the soil
[15] = 30 g of ai/ha worked into the soil, 0%=no damage, 100%=complete damage
[16] = 15 g of ai/ha (acid equivalent for salt)
[17] = 30 g of ai/ha (acid equivalent for salt)

With `COc1nc(C)nc(NC(=O)NS(=O)(=O)c2ccccc2I)n1.[Mg]` [Compound I-4, 2-Iodo-N-[(4-methoxy-6-methyl-1,3,5-triazin-2-yl)carbamoyl]benzenesulfonamide magnesium salt] the “Solanum nigrum control in %” value [1] was 85%, the “Panicum minor control in %” value [2] was 48% and the “herbicidal activity, post-emergence (visual scoring)” value (“herbicidal activity, post-emergence” for short) [3] was “very good herbicidal activity”. The “herbicidal activity, pre-emergence (visual scoring)” value (from here on “herbicidal activity, pre-emergence”) [4] was “very good herbicidal activity”.
For `COc1nc(C)nc(NC(=O)NS(=O)(=O)c2ccccc2I)n1.NCCO` [Compound I-19, 2-Iodo-N-[(4-methoxy-6-methyl-1,3,5-triazin-2-yl)carbamoyl]benzenesulfonamide-(2-hydroxyeth-1-yl)ammonium salt], the “herbicidal activity, post-emergence” value [3] was “very good herbicidal activity” and the “herbicidal activity, pre-emergence” value [4] was “very good herbicidal activity”.
In the case of `COc1nc(C)nc(NC(=O)NS(=O)(=O)c2ccccc2I)n1.[Na]` [Compound I-2, 2-Iodo-N-[(4-methoxy-6-methyl-1,3,5-triazin-2-yl)carbamoyl]benzenesulfonamide sodium salt], the “Vicia faba damage in %” value [5, 11] is reported as 2.5%, the “Vicia faba damage in %” value [5, 12] is reported as 2.5% and the “Vicia faba damage in %” value [5, 13] is reported as 2.5%. For the same compound, the “Vicia faba damage in %” value [5, 14] was 49%, the “Vicia faba damage in %” value [5, 15] was 93% and the “Sugar beet damage in %” value [6, 11] was 0%. For the same compound, the “Sugar beet damage in %” value [6, 12] was 1%, the “Sugar beet damage in %” value [6, 13] was 61% and the “Sugar beet damage in %” value [6, 14] was 85%. The “Sugar beet damage in %” value [6, 15] was 92%, the “Brassica napus damage in %” value [7, 11] was 0% and the “Brassica napus damage in %” value [7, 12] was 1%. For the same compound, the “Brassica napus damage in %” value [7, 13] was 29%, the “Brassica napus damage in %” value [7, 14] was 83% and the “Brassica napus damage in %” value [7, 15] was 94%. For the same compound, the “herbicidal activity, post-emergence” value [3] was “very good herbicidal activity”, the “Chenopodium album Control in %” value [8, 16] was 93% and the “Chenopodium album Control in %” value [8, 17] was 100%. The “Pennisetum glauca Control in %” value [9] was 85%, the “Fagopyran repens Control in %” value [10, 16] was 30% and the “Fagopyran repens Control in %” value [10, 17] was 45%. For the same compound, the “herbicidal activity, pre-emergence” value [4] was “very good herbicidal activity”.
For “2-Iodo-N-[(4-methoxy-6-methyl-1,3,5-triazin-2-yl)carbamoyl]benzenesulfonamide tetraethylammonium salt [Compound I-12]”, the “herbicidal activity, post-emergence” value [3] was “very good herbicidal activity” and the “herbicidal activity, pre-emergence” value [4] was “very good herbicidal activity”.
For `COc1nc(C)nc(NC(=O)NS(=O)(=O)c2ccccc2I)n1.[K]` [Compound I-3, 2-Iodo-N-[(4-methoxy-6-methyl-1,3,5-triazin-2-yl)carbamoyl]benzenesulfonamide potassium salt], the “Solanum nigrum control in %” value [1] was 84%, the “Panicum minor control in %” value [2] was 30% and the “herbicidal activity, post-emergence” value [3] was “very good herbicidal activity”. For the same compound, the “herbicidal activity, pre-emergence” value [4] was “very good herbicidal activity”.
With `COc1nc(C)nc(NC(=O)NS(=O)(=O)c2ccccc2I)n1.[Li]` [Compound I-1, 2-Iodo-N-[(4-methoxy-6-methyl-1,3,5-triazin-2-yl)carbamoyl]benzenesulfonamide lithium salt] the “herbicidal activity, post-emergence” value [3] was “very good herbicidal activity” and the “herbicidal activity, pre-emergence” value [4] was “very good herbicidal activity”.
With “2-Iodo-N-[(4-methoxy-6-methyl-1,3,5-triazin-2-yl)carbamoyl]benzenesulfonamide tetrabutylammonium salt [Compound I-18]” the “herbicidal activity, post-emergence” value [3] was “very good herbicidal activity” and the “herbicidal activity, pre-emergence” value [4] was “very good herbicidal activity”.
In the case of `COc1nc(C)nc(NC(=O)NS(=O)(=O)c2ccccc2I)n1` [2-Iodo-N-[(4-methoxy-6-methyl-1,3,5-triazin-2-yl)carbamoyl]benzenesulfonamide, reference compound], the “Solanum nigrum control in %” value [1] is reported as 70%, the “Panicum minor control in %” value [2] is reported as 0% and the “Chenopodium album Control in %” value [8, 16] is reported as 90%. For the same compound, the “Chenopodium album Control in %” value [8, 17] was 98%, the “Pennisetum glauca Control in %” value [9] was 80% and the “Fagopyran repens Control in %” value [10, 16] was 25%. The “Fagopyran repens Control in %” value [10, 17] was 40%.
